From US9127027B2, “Epoxyeicosatrienoic acid analogs and methods of making and using the same” (The Medical College of Wisconsin, Inc., priority 2011, dated 2015)
Like-named read-outs stand apart in the source and are kept apart here.

Tests used:
[1] = system: bovine coronary artery; experiment: Vasorelaxant activity in bovine coronary artery rings precontracted with U-46619; assay type: cell-based; conditions: for Vascular Relax. % (10 μM): 100% relaxation = basal pre-U-46619 tension; for EC50: Bos taurus
Description: Vasorelaxant activity was measured in bovine coronary artery. Bovine hearts were obtained and the left anterior descending coronary artery was dissected and cleaned of connective tissue. Vessels of 1 mm diameter were cut into rings of 3 mm width as previously described (3, 27, 39). […] The vessels were suspended from a pair of stainless steel hooks in a 6-ml water-jacketed organ chamber. […] One hook was anchored to a steel rod and the other hook to a force transducer (model FT-03C; Grass Instruments, West Warwick, R.I.). Tension of the vessel was measured by an ETH-400 bridge amplifier, and the data were acquired with a MacLab 8e analog-to-digital converter and MacLab software version 3.5.6 (AD Instruments, Milford, Mass.) and stored on a Macintosh computer for subsequent data analysis.
Basal tension was set at the length-tension maximum of 3.5 g and equilibrated for 1.5 h. KCl (40 mM) was added to the chamber until reproducible maximal contractions were maintained. […] Cumulative additions of compounds were added to the chamber. Between concentration-response curves, the chambers were rinsed with fresh Krebs buffer, 40 mM KCl was administered to determine the maximum contraction, and the vessels were rinsed. Consecutive concentration-response curves were performed with 14,15-EET followed by a concentration-response curve to a compound. The experiment was always repeated with the order of the agonists reversed. […] The relaxation was plotted versus compound concentration and the EC50 determined utilizing statistical software.

[2] = system: Spontaneously Hypertensive Rats (SHR); experiment: Telemetry blood pressure and heart rate in spontaneously hypertensive rats; assay type: in vivo, rat; conditions: for blood pressure after two weeks of treatment: 2 mg/d i.p. osmotic pump, vehicle 141±3.0; for heart rate: 2 mg/d i.p., vehicle 331±17.0
Source text: (§1) Telemetry Blood Pressure Measurement. To accurately detect changes in blood pressure and heart rate, telemetry transmitters (Data Sciences Inc., St. Paul, Minn.) were implanted in rats one week prior to the experimental period according to manufacturer's specifications while under pentobarbital anesthesia. In brief, an incision was made to expose the femoral artery that was occluded to allow insertion of the transmitter catheter. The catheter was secured in place with tissue glue and the transmitter body was sutured in place and the incision line was closed. Rats were allowed to recover from surgery and were returned to individual housing. A baseline arterial pressure was recorded for prior to the experimental period. Mean arterial pressure was continuously recorded throughout the experimental period.
Telemetry transmitters were implanted into male SHR as described. After the surgical recovery period, baseline mean arterial pressure was recorded. In this series of experiments, EET analogs were administered by osmotic pump (2 mg/d, i.p.) and blood pressure was continuously monitored.

[3] = system: angiotensin II induced hypertensive rats; experiment: Angiotensin II hypertension: telemetry blood pressure, heart rate, sodium and protein excretion; assay type: in vivo, rat; conditions: Ang II hypertension; for blood pressure at end of two-week treatment: 2 mg/d i.p., vehicle 150±3.2; for heart rate: vehicle 396±25.0
Source text: as §1
Telemetry transmitters were implanted into male Sprague-Dawley rats (225-275 g) as described. After recording basal blood pressure, osmotic pumps were implanted (s.c.) to deliver angiotensin at a dose of 60 ng/min. EET analogs were administered by an osmotic pump (2 mg/d, i.p.) and blood pressure was continuously monitored.
Animals were placed in a metabolic cage and urine was collected in a conical tube. Samples were stored at −80° C. until assayed. Urinary protein excretion was assessed as an index for renal injury. Protein was determined by the Bradford colorimetric method and creatinine was determined by the picric acid colorimetric method.

[4] = target: Human recombinant sEH (Homo sapiens (Human), UniProt P34913); experiment: Soluble epoxide hydrolase inhibition (PHOME fluorescent substrate); assay type: biochemical
Sequence of Human recombinant sEH (P34913 whole entry): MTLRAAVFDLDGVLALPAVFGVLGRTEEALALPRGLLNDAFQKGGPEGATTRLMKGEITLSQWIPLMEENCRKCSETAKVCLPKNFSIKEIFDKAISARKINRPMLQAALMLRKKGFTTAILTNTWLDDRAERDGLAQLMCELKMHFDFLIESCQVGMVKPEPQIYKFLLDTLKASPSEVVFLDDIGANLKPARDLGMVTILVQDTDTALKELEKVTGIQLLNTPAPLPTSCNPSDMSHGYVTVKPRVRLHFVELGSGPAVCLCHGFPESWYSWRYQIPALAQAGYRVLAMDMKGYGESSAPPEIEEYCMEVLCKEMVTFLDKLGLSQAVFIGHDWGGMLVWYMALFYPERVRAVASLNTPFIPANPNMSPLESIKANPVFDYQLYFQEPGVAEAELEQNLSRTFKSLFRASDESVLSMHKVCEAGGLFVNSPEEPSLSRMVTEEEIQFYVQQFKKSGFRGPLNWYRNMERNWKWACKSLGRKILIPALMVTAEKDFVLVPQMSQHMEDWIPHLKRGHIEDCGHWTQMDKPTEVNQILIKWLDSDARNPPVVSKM
Description: Compounds were tested for their ability to inhibit recombinant soluble epoxide hydrolase (sEH) protein. The assay utilizes (3-Phhenyl-oxiranyl)-acetic acid cyano-(6-methoxy-naphthalen-2-yl)-methyl ester (PHOME), a sensitive substrate for sEH that can be used to monitor the activity of both human and murine enzymes. […] Human recombinant sEH was incubated with substrate and compounds ranging in concentration from 0.1 to 1000 nM.

[5] = system: Wistar-Kyoto (WKY) rats administered cisplatin; experiment: Cisplatin-induced nephrotoxicity in rats pretreated with EET analogs; assay type: in vivo, rat
Source text: Experiments were approved and carried out according to the guidelines of the Institutional Animal Care and Use Committee, Medical College of Wisconsin, Milwaukee, USA. Male Wistar-Kyoto (WKY) rats weighing 180-200 g (Charles River, Mass., USA). All animals were kept in a temperature-controlled environment with a 12-h light/dark cycle and were allowed free access to food and water at all times. An acclimatization period of 6 days was allowed for the rats before experimentation. The rats were assigned into four groups. Group 1 (WKY, n=5-7): Rats received drinking water ad libitum for seven days and on day 7 DMSO (Sigma Aldrich, St. Louis, Mo., USA) was administered (300-500 μl i.p). […] Group 2 (CP+Vehicle, n=5-7): Rats were pretreated with vehicle (0.05% ethanol and 0.1% PEG-400 v/v) in drinking water for seven days and then on day 7 CP was administered (7 mg/kg i.p.) followed by another five days treatment with vehicle. Group 3 (CP+EET-A, n=5-7): These rats are pretreated with the EET analog EET-A (10 mg/kg/day p.o.) for seven days in drinking water and then on day 7 administered CP as a single injection (7 mg/kg i.p.) followed by another five days treatment with EET-A. Group 4 (CP+EET-B, n=5-7): Rats of this group are pretreated with another EET analog EET-B (10 mg/kg/day) for 7 days in drinking water and then on day 7 CP was administered as a single injection (7 mg/kg i.p.) followed by another five days treatment with EET-B. Rats of groups 2, 3 and 4 had free access to vehicle, EET-A and -B in drinking water, respectively. One day before the rats were sacrificed, urine of each rat was collected over a 24-h period, and the volume was measured. Five days after CP or DMSO administration, rats were anesthetized for blood sample collection followed by euthanasia and tissue collection. Urine and plasma samples were kept frozen at −80° C. until analyzed. The kidneys were removed, washed with physiological saline and stored at −80° C. until used for RT-PCR analysis, thiobarbituric acid reactive substance (TBARS) measurement and caspase 3 activity assay. A part of the kidney also preserved in 10% buffered formalin for histological examination.
The levels of blood urea nitrogen (BUN) (BioAssay Systems, Hayward, Calif., USA) and serum creatinine (Cayman Chemical Company, Ann Arbor, Mich., USA) were measured spectrophotometrically using commercial kits. Urinary content of creatinine and protein were measured using commercial kits (Cayman Chemical Company, Ann Arbor, Mich., USA), and the activity of urinary N-acetyl-b-glucosaminidase (NAG) in the urine was measured by a kit from Diazyme (Diazyme Laboratories, Poway, Calif., USA). While urine content of kidney injury molecule-1 (KIM-1) was measured using ELISA (R&D Systems, Inc. Minneapolis, Minn., USA).
Malondialdehyde (MDA) is a thiobarbituric acid reactive substance (TBARS) that is formed as an end-product of lipid peroxidation and serves as an important index of oxidative stress. To determine the kidney MDA level, the rat kidney was homogenized with buffer containing 1.5% potassium chloride to obtain a 1:10 (w/v) whole kidney homogenate. Using a commercially available kit (Cayman Chemical Company, Ann Arbor, Mich., USA), MDA was measured spectrophotometrically after reaction with thiobarbituric acid. […]
Real-Time analysis was carried out to assess the expression of oxidative (gp91phox, NOX1, SOD1, SOD2, SOD3), inflammatory (TNF-α, IL-6, IL-1β), apoptotic (Bax, Bak, Bcl-2) and endoplasmic reticulum stress (GRP78, caspase 12) related genes in the kidney. Total RNA was isolated from kidney homogenate using TRIzol LS reagents (Invitrogen Life Technologies, Carlsbad, Calif., USA) according to the manufacturer's instructions. The isolated RNA was treated with RNase-free DNase (Invitrogen, Carlsbad, Calif., USA) to remove traces of genomic DNA contamination. […]

[6] = Table 2, read-out: Vascular relaxation EC50
[7] = bovine coronary artery, read-out: Vascular Relax. EC50
[8] = vs vehicle-treated cisplatin rats

| EC50 [1, 6] | EC50 [1, 7] | Compound | Vascular Relax. % (10 μM) [1] | Vascular relaxation % relaxation (10 μM) ([1]; Table 2) | blood pressure after two weeks of treatment [2] | heart rate [2] | blood pressure at end of two-week treatment [3] | heart rate ([3]; two weeks) | also measured |
| --- | --- | --- | --- | --- | --- | --- | --- | --- | --- |
| 1600 nM | 1600 nM | CCCCCNC(=O)NCCCC/C=C\CCCCCCC(=O)N[C@@H](CC(=O)O)C(=O)O (stereo in doubt) [Compound 7, (S)-2-(13-(3-n-Pentylureido)tridec-8(Z)-enamido)succinic acid] | 91% | 91% | 131±2.0 mmHg | 316±23.0 BPM | 135±5.0 mmHg | 410±25.0 BPM | – |
| 180 nM | 180 nM | CCCCCNC(=O)NCCCC/C=C\CCCCCCc1nnn[nH]1 [Compound 20] | 119% | 119% | 137±1.0 mmHg | – | – | – | IC50 ([4]; Table 1 head prints μM (Table 2 prints nM for same numbers), read-out: sEHi IC50): 0.011 µM; IC50 ([4]; Table 2, read-out: SEHi activity IC50): 0.011 µM |
| – | – | CCCCCCC(=O)N(CCCCCOc1cccc2sc(NC(C)=O)nc12)C(C)C [Compound 30, N-(5-(2-Acetamidobenzo[d]thiazol-4-yloxy)pentyl)-N-isopropylheptanamide] | 96% | 96% | 129±2.0 mmHg | 318±24.0 BPM | 107±2.0 mmHg | 385±16.0 BPM | decrease in blood pressure compared to vehicle ([2]; two weeks treatment): 12 mmHg; sodium excretion (natriuresis) ([3]; two weeks, vehicle 1.9±0.7): 2.7 ± 0.3 mmol/day |
| – | – | CCCCCCC(=O)N(CCCCCOc1cccc2sc(NC(=O)C(C)(C)C)nc12)C(C)C [EET-B, N-Isopropyl-N-(5-(2-pivalamidobenzo[d]thiazol-4-yloxy)pentyl)heptanamide] | – | – | – | – | – | – | BUN ([5]; 10 mg/kg/d p.o., day 5 after cisplatin 7 mg/kg i.p., vehicle 241±51): 120 ± 33 mg/dL; urinary NAG ([5]; 10 mg/kg/d p.o., day 5 after cisplatin, vehicle 3.0±0.6): 0.6±0.2 U/d; plasma creatinine (PCr) ([5]; 10 mg/kg/d p.o., day 5 after cisplatin, vehicle 3.1±0.2): 1.4 ± 0.2 mg/dL; KIM-1 urinary excretion ([5]; 10 mg/kg/d p.o., day 5 after cisplatin, vehicle 296±94): 57 ± 13 ng/day; cisplatin-induced proteinuria ([5]; 10 mg/kg/d p.o., vehicle 53±5): 32 ± 3 mg/day; reductions in renal mRNA expressions of inflammatory markers (TNF-α, IL-6, IL-1β) ([5]; cisplatin-administered rats): 40-60%; reduction in elevated renal expressions of GRP78 and caspase 12 mRNAs ([5]; vs vehicle treatment, cisplatin-administered rats): 2-4 fold; decrease in kidney expression of NOX1 and gp91phox mRNAs [5, 8]: 2-3 folds; reduction in urinary excretion of NAG and KIM-1 [5, 8]: 30-50%; reduction of cisplatin-induced proteinuria [5, 8]: ≥ 40%; reductions in elevated serum creatinine and BUN [5, 8]: 30-50% |
